The subject of the assay is Mycobacterium tuberculosis variant bovis. Put plainly: Antimycobacterial activity against Mycobacterium bovis. Type of assay: functional, organism-based.

In the case of `C/C=C(\C)C(=O)O[C@@H]1C[C@H]2C(=C1C)[C@@H]1OC(=O)[C@@](C)(O)[C@@]1(O)[C@@H](OC(=O)[C@H](C)CC)C[C@@]2(C)OC(C)=O`, the IC50 was found to be 27.3 µM.

As for `C/C=C(/C)C(=O)O[C@@H]1C[C@H]2C(=C1C)[C@@H]1OC(=O)[C@@](C)(O)[C@@]1(O)[C@@H](OC(=O)CCCCn1cc([C@]3(O)CC[C@H]4[C@@H]5CCc6cc(OC)ccc6[C@H]5CC[C@@]43C)nn1)C[C@]2(C)OC(C)=O`, half-maximal inhibition (IC50) required 10.6 µM.
